Data on 42 molecules can be found in US20250034170A1, “SMALL MOLECULE MODULATORS OF GLUCOCEREBROSIDASE ACTIVITY AND USES THEREOF” (Vanqua Bio, Inc., priority 2021, published 2025).

This assay deals with T1, GCase (Homo sapiens, UniProt P04062).
T1 construct: endogenous in cells; host or cells: HeLa cells
T1 sequence (P04062 40-536): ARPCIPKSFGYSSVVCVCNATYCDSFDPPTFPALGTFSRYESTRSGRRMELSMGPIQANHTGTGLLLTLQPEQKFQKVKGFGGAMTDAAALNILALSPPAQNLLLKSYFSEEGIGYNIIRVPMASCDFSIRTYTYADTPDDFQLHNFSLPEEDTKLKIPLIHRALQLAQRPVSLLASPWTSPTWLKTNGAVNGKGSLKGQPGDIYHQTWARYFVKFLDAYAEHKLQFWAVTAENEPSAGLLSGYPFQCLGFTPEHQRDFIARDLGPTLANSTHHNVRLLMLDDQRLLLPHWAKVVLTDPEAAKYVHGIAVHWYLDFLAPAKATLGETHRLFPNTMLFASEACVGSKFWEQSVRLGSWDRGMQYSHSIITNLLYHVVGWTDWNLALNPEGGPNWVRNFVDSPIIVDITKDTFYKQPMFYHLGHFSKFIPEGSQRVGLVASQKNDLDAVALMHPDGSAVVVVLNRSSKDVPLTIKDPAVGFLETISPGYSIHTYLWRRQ
In words: activation of GCase in a live cell PFB assay in HELA cells. It is filed as cell-based. As for the experimental part: Exemplary compounds were evaluated for activation of GCase in a live cell PFB assay in HELA cells (essentially as described in Ysselstein et al., “LRRK2 kinase activity regulates lysosomal glucocerebrosidase in neurons derived from Parkinson's disease patients” Nature Communications (2019) 10:5570). […] EC50 ranges: A: <10 μM; B: >10-50 μM; C: >50-100 μM; D: >100 μM.

The mark [1] stands for this setting: activation of GCase, EC50 ranges.

pEC50: −log10 of the molar value. Bounds are passed on as bounds.

By pEC50 is commonly meant the EC50 on a negative log10 scale, so that one unit is a factor of ten. A low value points to a large EC50. Regarding `FC(F)Cn1ncc2ncc(NC3CCC4(C3)CN(c3cc(C(F)(F)F)ccn3)C4)nc21` (stereo not drawn) [Compound 190, N-[1-(2,2-difluoroethyl)-1H-pyrazolo[3,4-b]pyrazin-6-yl]-2-[4-(trifluoromethyl)pyridin-2-yl]-2-azaspiro[3.4]octan-6-amine], for the setting “EC50 given as range classes”, the negative-log EC50 (pEC50) is more than 5.00.
`FC(F)Cn1ncc2ncc(N3CCCC4(C3)CN(c3ccncc3C(F)(F)F)C4)nc21` [Compound 35, 6-[1-(2,2-difluoroethyl)-1H-pyrazolo[3,4-b]pyrazin-6-yl]-2-[3-(trifluoromethyl)pyridin-4-yl]-2,6-diazaspiro[3.5]nonane]: the pEC50 under setting [1] was 4.30 to 5.00.
`FC(F)Cn1ncc2ncc(N3CC4(CCCN(c5ccc(C(F)(F)F)cn5)C4)C3)nc21` [Compound 14, 2-[1-(2,2-difluoroethyl)-1H-pyrazolo[3,4-b]pyrazin-6-yl]-6-[5-(trifluoromethyl)pyridin-2-yl]-2,6-diazaspiro[3.5]nonane]: under setting [1], the pEC50 was 4.30 to 5.00.
Consider `Cc1nc(N2CCC3(CCN(c4ncc5c(C)nn(CC(F)F)c5n4)CC3)C2)cc(C(F)(F)F)n1` [Cmpd 576], for which the pEC50 under setting [1] is 4.30 to 5.00.
Take `Cc1nn(CC(F)F)c2nc(N3CCC4(CN(c5ccnc(C(F)(F)F)c5)C4)C3=O)ncc12` [Cmpd 1000]: the pEC50 (EC50 given as range classes) is more than 5.00.
`FC(F)Cn1ncc2ncc(N3CCC4(CCN(c5cncc(C(F)(F)F)n5)CC4)CC3)nc21` [Cmpd 813] had a pEC50 (EC50 given as range classes) of more than 5.00.
Consider `CC(C)N1C(=O)N(c2ccc(C(F)(F)F)nc2)C(=O)C12CCN(c1cnc3cnn(CC(F)F)c3n1)CC2` [Cmpd 848], for which the pEC50 under setting [1] is 4.30 to 5.00.
Consider `FC(F)(F)c1ncc(N2CCC3(CCN(c4cncc(-c5nncs5)n4)C3)C2)cn1` (stereo not drawn) [Cmpd 532], for which the pEC50 under setting [1] is 4.30 to 5.00.
Same read-out and setting: the value for `FC(F)Cn1ncc2ncc(N3CC4(CCN(c5ccc(C(F)(F)F)nc5)CC4)C3)nc21` [Compound 127, 2-[1-(2,2-difluoroethyl)-1H-pyrazolo[3,4-b]pyrazin-6-yl]-7-[6-(trifluoromethyl)pyridin-3-yl]-2,7-diazaspiro[3.5]nonane] was more than 5.00; that for `O=C1N(c2cc(C(F)(F)F)ccn2)C(=O)C2(CCN(c3cnc4cnn(CC(F)F)c4n3)CC2)N1CCC1CC1` [Cmpd 712] was 4.30 to 5.00.
The molecule `FC(F)Cn1ncc2ncc(N3CCCC4(CCN(c5cc(C(F)(F)F)ccn5)CC4)C3)nc21` [Cmpd 217] had a pEC50 (EC50 given as range classes) of 4.30 to 5.00.
Under setting [1], `Cc1cc(N2CC3(CCN(c4cnc5c(C)nn(CC(C)(F)F)c5n4)C3)C2)nc(C(F)(F)F)n1` [Cmpd 1129] showed a pEC50 of more than 5.00.
For `FC(F)(F)c1cncc(N2CCC3(CCN(c4cncc(-c5nncs5)n4)CC3)C2)c1` [Cmpd 235], the pEC50 under setting [1] is 4.00 to 4.30.
The same measure, in the same setting: the value for `O=C(c1cccc(Cl)c1)N1CC2(CCN(c3cnc4cnn(CC(F)F)c4n3)C2)C1` [Cmpd 371] was more than 5.00.
On the same count and under the same terms, the value for `FC(F)Cn1ncc2ncc(N3CC4(CCN(c5cccnc5C(F)(F)F)CC4)C3)nc21` [Compound 129, 2-[1-(2,2-difluoroethyl)-1H-pyrazolo[3,4-b]pyrazin-6-yl]-7-[2-(trifluoromethyl)pyridin-3-yl]-2,7-diazaspiro[3.5]nonane] was 4.30 to 5.00; that for `FC(F)(F)c1ccc(N2CCC3(CCN(c4cncc(N5CCCC5)n4)CC3)C2)cn1` [Cmpd 248] was more than 5.00.
For the molecule `CCn1nc(N2CCC3(CCN(c4cnc5cnn(CC(F)F)c5n4)CC3)C2=O)ccc1=O` [Cmpd 847], the pEC50 under setting [1] was 4.30 to 5.00.
`CCc1nn(C2COC2)c2nc(N3CCC4(CN(c5ccnc(C(F)(F)F)c5)C4)C3)ncc12` [Cmpd 1070] had a pEC50 under setting [1] of more than 5.00.
Same read-out and setting: the value for `O=C1CC2(CCN(c3cnc4cnn(CC(F)F)c4n3)CC2)CN1Cc1ccc(Cl)cc1` [Cmpd 445] was 4.30 to 5.00; that for `FC(F)Cn1ncc2ncc(N3CCC4(CCCN(c5cccnc5C(F)(F)F)C4)C3)nc21` (stereo not drawn) [Compound 7, 2-[1-(2,2-difluoroethyl)-1H-pyrazolo[3,4-b]pyrazin-6-yl]-7-[2-(trifluoromethyl)pyridin-3-yl]-2,7-diazaspiro[4.5]decane] was more than 5.00.
As to `Cc1nn(CC(F)F)c2nc(N3CCC4(CCN(c5ccc(C(F)(F)F)nc5)C4)CC3)ncc12` [Cmpd 830], the pEC50 (EC50 given as range classes) was more than 5.00.
Under setting [1], `FC(F)(F)Cn1ncc2ncc(N3CCC4(CN(c5ccnc(C(F)(F)F)c5)C4)C3)nc21` [Cmpd 924] showed a negative logarithm of the EC50 (pEC50) of more than 5.00.
Still for that read-out and setting: the value for `Cc1nc(N2CC3(CCN(c4cnc5c(C)nn(CC(F)F)c5n4)CC3)C2)cc(C(F)(F)F)n1` [Cmpd 568] was more than 5.00; that for `O=C1CC2(CCN1c1cnc3cnn(CC(F)F)c3n1)CN(c1ccc(C(F)(F)F)nc1)C2` [Cmpd 913] was 4.30 to 5.00.
Take `Cc1nn(C2COC2)c2nc(N3CCC4(CC3)CN(c3cc(C(F)(F)F)ccn3)C4)ncc12` [Cmpd 479]: under setting [1], the pEC50 was less than 4.00.
Take `O=C1CC2(CCN(c3cnc4cnn(CC(F)F)c4n3)CC2)CN1Cc1ccc(OC(F)F)cc1` [Cmpd 442]: the pEC50 under setting [1] was more than 5.00.
Consider `Cc1nc(N2CC3(CCN(c4ccc5cnn(CC(F)F)c5n4)CC3)CC2=O)cc(C(F)(F)F)n1` [Cmpd 627], for which the pEC50 (EC50 given as range classes) is more than 5.00.
`FC(F)OCCn1ncc2ncc(N3CCC4(CCN(c5cc(C(F)(F)F)ccn5)C4)CC3)nc21` [Cmpd 751] had a negative logarithm of the EC50 (pEC50) under setting [1] of 4.30 to 5.00.
In turn, `CCn1c(=O)n(C2COC2)c2ncc(N3CCC4(CN(c5ccnc(C(F)(F)F)c5)C4)C3)nc21` [Cmpd 982] had a pEC50 (EC50 given as range classes) of 4.30 to 5.00.
`O=C1N(c2cc(C(F)(F)F)ccn2)CCC12CCN(c1ncc3cnn(CC(F)F)c3n1)CC2` [Cmpd 285] gave a pEC50 under setting [1] of 4.30 to 5.00.
Still for that read-out and setting: the value for `Cc1cn(-c2ccccc2)nc1C(=O)N1CCC2(CC1)CCN(c1cc(C(F)(F)F)ccn1)C2=O` [Cmpd 270] was 4.30 to 5.00.
For the molecule `Cc1nc(C(F)(F)F)cnc1N1CCC2(CCN(c3cnc4cnn(CC(F)F)c4n3)CC2)C1` [Cmpd 786], where the note is “EC50 given as range classes”, the pEC50 is more than 5.00.
With `Cc1cccc(C(=O)N2CC3(CCN(c4cnc5cnn(CC(F)F)c5n4)C3)C2)c1` [Cmpd 381], the pEC50 (EC50 given as range classes) was more than 5.00.
The molecule `Cc1nc(N2CC[C@]3(CCN(c4cnc5c(C)nn(C6COC6)c5n4)C3)C2)cc(C(F)(F)F)n1` [Cmpd 1122] had a pEC50 under setting [1] of 4.30 to 5.00.
For the molecule `Cc1nc(N2CC3(CCN(c4cc5c(cn4)c(C)nn5CC(F)F)CC3)C2)cc(C(F)(F)F)n1` [Cmpd 613], the pEC50 (EC50 given as range classes) is more than 5.00.
`O=C1CC2(CCN(c3cnc4cnn(CC(F)F)c4n3)CC2)CN1Cc1ccnc(C(F)(F)F)c1` [Cmpd 362]: the pEC50 under setting [1] is more than 5.00.
Same read-out and setting: the value for `Cc1cc(F)cc(-n2cc(C(=O)N3CCC4(CC3)CCN(c3cc(C(F)(F)F)ccn3)C4=O)nn2)c1` [Cmpd 268] was 4.30 to 5.00.
`Cn1c(N2CCC3(CN(c4ccc(C(F)(F)F)nc4)C3)C2)nc2c(cnn2CC(F)F)c1=O` [Cmpd 997] showed a pEC50 (EC50 given as range classes) of more than 5.00.
For the molecule `O=C1N(c2ccc(C(F)(F)F)nc2)CCC12CCN(c1cnc3cnn(CC(F)F)c3n1)CC2` [Cmpd 673], the pEC50 under setting [1] is more than 5.00.
As for `O=C1CC2(CCN(c3cnc4cnn(CC(F)F)c4n3)CC2)CN1c1ncccc1C(F)(F)F` [Cmpd 686], the pEC50 under setting [1] is less than 4.00.
The molecule `CC(C)N1C(=O)N(c2cc(C(F)(F)F)ccn2)C(=O)C12CN(c1cnc3cnn(CC(F)F)c3n1)C2` [Cmpd 300] gave a pEC50 under setting [1] of 4.00 to 4.30.
On the same count and under the same terms, the value for `Cc1cc(N2CC3(CCN(c4cnc5c(C)nn(C6COC6)c5n4)CC3)CC2=O)nc(C(F)(F)F)n1` [Cmpd 458] was more than 5.00.
